Source: ChEMBL document CHEMBL4007390, “Design, synthesis and biological evaluation of indolin-2-one-based derivatives as potent, selective and efficacious inhibitors of FMS-like tyrosine kinase3 (FLT3)” (Eur J Med Chem, 2017)

Columns and labels:
[1] = species: Homo sapiens; assay: Inhibition of human FLT3 ITD mutant at 0.1 uM relative to control
[2] = molecular target: Vascular endothelial growth factor receptor 1 (Homo sapiens) (UniProt P17948); assay: Inhibition of human VEGFR1 at 0.1 uM relative to control
[3] = molecular target: Vascular endothelial growth factor receptor 2 (Homo sapiens) (UniProt P35968); assay: Inhibition of human VEGFR2 at 0.1 uM relative to control
[4] = test system: Platelet-derived growth factor receptor alpha (Homo sapiens), P16234 [D842V]; assay: Inhibition of human PDGFRalpha D842V mutant at 0.1 uM relative to control
Platelet-derived growth factor receptor alpha (Homo sapiens), P16234 [D842V], sequence (P16234 whole entry D842V): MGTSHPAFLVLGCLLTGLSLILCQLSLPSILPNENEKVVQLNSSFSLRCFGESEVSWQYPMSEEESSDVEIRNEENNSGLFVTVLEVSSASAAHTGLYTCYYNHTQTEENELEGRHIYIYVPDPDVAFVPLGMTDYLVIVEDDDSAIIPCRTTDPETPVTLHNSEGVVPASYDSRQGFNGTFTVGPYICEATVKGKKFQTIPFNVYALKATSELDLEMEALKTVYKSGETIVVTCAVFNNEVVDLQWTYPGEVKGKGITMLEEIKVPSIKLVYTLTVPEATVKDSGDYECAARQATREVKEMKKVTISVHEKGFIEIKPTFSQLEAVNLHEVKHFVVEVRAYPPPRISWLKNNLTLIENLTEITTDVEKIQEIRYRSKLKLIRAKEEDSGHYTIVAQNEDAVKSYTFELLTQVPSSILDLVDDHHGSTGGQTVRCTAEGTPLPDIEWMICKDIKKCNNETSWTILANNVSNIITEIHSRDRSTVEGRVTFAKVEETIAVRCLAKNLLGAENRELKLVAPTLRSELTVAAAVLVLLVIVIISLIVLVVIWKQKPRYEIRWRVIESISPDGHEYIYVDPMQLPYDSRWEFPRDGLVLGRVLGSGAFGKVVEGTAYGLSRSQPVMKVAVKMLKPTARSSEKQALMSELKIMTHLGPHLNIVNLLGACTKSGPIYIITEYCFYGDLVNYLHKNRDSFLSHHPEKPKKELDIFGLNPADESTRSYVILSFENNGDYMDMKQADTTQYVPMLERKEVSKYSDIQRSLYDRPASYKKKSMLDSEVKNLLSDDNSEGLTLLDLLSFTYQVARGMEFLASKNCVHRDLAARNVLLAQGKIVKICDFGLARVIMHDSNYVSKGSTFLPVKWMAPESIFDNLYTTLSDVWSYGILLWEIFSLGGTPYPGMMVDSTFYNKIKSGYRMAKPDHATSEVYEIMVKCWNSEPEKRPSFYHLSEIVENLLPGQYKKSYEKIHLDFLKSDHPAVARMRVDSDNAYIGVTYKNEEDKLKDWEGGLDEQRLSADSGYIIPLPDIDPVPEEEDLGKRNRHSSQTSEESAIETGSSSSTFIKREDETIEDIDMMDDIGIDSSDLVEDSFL

[5] = test system: Platelet-derived growth factor receptor alpha (Homo sapiens), P16234 [T674I]; assay: Inhibition of human PDGFRalpha T674I mutant at 0.1 uM relative to control
Platelet-derived growth factor receptor alpha (Homo sapiens), P16234 [T674I], sequence (P16234 whole entry T674I): as the sequence (P16234 whole entry D842V) above, with T674I, V842D counted along it

[6] = molecular target: Epidermal growth factor receptor (Homo sapiens) (UniProt P00533); assay: Inhibition of human EGFR at 0.1 uM relative to control
[7] = molecular target: Fibroblast growth factor receptor 1 (Homo sapiens) (UniProt P11362); assay: Inhibition of human FGFR1 at 0.1 uM relative to control
Fibroblast growth factor receptor 1 (Homo sapiens), sequence (P11362 22-822 limits assumed): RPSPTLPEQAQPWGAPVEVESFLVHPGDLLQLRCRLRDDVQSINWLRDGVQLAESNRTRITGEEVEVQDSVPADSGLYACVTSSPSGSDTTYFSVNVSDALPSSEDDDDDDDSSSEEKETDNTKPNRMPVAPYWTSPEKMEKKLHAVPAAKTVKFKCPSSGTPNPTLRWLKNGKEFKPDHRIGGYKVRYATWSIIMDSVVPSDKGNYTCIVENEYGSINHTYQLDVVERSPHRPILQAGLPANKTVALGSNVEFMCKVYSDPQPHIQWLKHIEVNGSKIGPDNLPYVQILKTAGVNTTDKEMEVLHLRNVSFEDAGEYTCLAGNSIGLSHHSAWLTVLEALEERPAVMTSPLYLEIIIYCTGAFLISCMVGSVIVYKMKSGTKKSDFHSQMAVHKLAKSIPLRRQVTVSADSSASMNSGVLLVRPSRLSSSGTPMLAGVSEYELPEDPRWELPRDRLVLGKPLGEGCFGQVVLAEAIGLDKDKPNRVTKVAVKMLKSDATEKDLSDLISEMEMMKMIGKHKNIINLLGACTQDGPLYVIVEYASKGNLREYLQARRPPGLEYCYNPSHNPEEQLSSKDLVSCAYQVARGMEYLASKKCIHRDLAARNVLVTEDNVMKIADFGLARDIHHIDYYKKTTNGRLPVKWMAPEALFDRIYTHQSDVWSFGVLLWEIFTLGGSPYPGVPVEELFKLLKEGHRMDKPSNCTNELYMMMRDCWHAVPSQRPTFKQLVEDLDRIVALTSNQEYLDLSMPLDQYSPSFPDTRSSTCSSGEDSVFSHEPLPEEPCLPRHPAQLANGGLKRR

[8] = test system: Mast/stem cell growth factor receptor Kit (Homo sapiens), P10721 [T670I]; assay: Inhibition of human KIT T670I mutant at 0.1 uM relative to control
Mast/stem cell growth factor receptor Kit (Homo sapiens), P10721 [T670I], sequence (P10721 whole entry T670I): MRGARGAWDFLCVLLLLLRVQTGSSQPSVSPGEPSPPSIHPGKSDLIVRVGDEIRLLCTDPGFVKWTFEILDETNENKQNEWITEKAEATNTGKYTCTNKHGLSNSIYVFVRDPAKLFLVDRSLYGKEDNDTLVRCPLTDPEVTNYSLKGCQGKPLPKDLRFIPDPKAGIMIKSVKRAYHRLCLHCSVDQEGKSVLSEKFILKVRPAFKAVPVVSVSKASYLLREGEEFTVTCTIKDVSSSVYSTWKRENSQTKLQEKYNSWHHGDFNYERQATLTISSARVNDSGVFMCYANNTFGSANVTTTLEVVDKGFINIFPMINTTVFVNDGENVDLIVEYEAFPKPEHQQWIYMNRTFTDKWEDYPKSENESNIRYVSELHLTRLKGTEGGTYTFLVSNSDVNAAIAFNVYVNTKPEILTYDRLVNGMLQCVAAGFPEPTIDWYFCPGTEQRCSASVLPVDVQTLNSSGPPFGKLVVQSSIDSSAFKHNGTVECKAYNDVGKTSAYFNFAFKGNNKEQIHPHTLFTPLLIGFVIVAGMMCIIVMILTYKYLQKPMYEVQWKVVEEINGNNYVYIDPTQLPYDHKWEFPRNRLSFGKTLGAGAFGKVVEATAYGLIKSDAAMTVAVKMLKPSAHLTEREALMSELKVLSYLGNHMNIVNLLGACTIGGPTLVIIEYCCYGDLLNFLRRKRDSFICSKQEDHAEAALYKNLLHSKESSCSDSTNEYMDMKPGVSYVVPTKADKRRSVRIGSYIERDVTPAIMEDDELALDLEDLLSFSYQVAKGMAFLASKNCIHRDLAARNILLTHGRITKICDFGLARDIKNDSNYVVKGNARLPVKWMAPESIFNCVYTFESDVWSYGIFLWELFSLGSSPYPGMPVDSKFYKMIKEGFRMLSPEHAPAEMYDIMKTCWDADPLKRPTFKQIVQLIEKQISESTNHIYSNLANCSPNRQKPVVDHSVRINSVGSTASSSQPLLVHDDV

[9] = molecular target: Proto-oncogene tyrosine-protein kinase receptor Ret (Homo sapiens) (UniProt P07949); assay: Inhibition of human RET at 0.1 uM relative to control
Proto-oncogene tyrosine-protein kinase receptor Ret (Homo sapiens), sequence (P07949 whole entry): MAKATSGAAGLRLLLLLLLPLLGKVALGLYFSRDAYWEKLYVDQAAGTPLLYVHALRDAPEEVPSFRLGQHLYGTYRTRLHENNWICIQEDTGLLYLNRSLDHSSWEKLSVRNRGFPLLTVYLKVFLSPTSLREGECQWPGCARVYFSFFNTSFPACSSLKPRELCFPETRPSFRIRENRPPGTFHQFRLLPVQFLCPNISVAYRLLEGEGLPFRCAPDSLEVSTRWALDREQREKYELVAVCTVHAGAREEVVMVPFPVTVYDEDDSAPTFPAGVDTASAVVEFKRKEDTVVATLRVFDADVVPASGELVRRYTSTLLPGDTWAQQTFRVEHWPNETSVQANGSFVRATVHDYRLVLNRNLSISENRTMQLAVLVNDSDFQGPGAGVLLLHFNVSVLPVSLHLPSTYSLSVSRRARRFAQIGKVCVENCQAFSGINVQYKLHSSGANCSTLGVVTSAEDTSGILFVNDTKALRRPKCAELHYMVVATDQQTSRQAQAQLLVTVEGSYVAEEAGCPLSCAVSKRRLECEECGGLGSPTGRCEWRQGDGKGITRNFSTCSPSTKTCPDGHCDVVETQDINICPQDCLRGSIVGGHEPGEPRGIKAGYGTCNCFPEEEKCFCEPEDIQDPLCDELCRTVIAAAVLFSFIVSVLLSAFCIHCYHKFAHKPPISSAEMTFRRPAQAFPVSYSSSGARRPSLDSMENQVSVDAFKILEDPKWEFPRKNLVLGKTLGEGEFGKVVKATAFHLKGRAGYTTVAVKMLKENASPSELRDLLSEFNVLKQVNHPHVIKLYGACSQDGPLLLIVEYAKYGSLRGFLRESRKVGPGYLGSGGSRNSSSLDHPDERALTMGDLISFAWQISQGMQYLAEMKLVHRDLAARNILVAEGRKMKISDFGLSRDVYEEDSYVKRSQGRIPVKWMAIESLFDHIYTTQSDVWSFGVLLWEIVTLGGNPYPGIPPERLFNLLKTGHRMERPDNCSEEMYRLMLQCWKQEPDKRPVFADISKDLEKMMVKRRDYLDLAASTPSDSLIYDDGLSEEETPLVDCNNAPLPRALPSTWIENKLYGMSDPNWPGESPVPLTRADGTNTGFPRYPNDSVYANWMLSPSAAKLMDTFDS

[10] = molecular target: Serine/threonine-protein kinase B-raf (Homo sapiens) (UniProt P15056); assay: Inhibition of human BRAF at 0.1 uM relative to control
[11] = molecular target: Aurora kinase A (Homo sapiens) (UniProt O14965); assay: Inhibition of human Aurora A at 0.1 uM relative to control
[12] = molecular target: Ephrin type-B receptor 4 (Homo sapiens) (UniProt P54760); assay: Inhibition of human EPHB4 at 0.1 uM relative to control
[13] = molecular target: Serine/threonine-protein kinase Nek6 (Homo sapiens) (UniProt Q9HC98); assay: Inhibition of human NEK6 at 0.1 uM relative to control
[14] = molecular target: Discoidin domain-containing receptor 2 (Homo sapiens) (UniProt Q16832); assay: Inhibition of human DDR2 at 0.1 uM relative to control
[15] = molecular target: Tyrosine-protein kinase ZAP-70 (Homo sapiens) (UniProt P43403); assay: Inhibition of human ZAP70 at 0.1 uM relative to control
[16] = molecular target: Ribosomal protein S6 kinase beta-1 (Homo sapiens) (UniProt P23443); assay: Inhibition of human RPS6KB1 at 0.1 uM relative to control
[17] = Inhibition of human FLT3 ITD mutant
[18] = molecular target: Platelet-derived growth factor receptor alpha (Homo sapiens, UniProt P16234); assay: Inhibition of human PDGFRalpha
[19] = molecular target: Mast/stem cell growth factor receptor Kit (Homo sapiens, UniProt P10721); assay: Inhibition of human KIT
Mast/stem cell growth factor receptor Kit, sequence (P10721 whole entry): as the sequence (P10721 whole entry T670I) above, with I670T counted along it

[20] = test system: MOLM-13; assay: Antiproliferative activity against human MOLM13 cells harboring FLT3 ITD mutant after 72 hrs by MTS assay; conditions: MOLM-13, 72 h
[21] = test system: Jurkat; assay: Antiproliferative activity against FLT3 negative human Jurkat cells after 72 hrs by MTS assay; type: functional, cell-based
[22] = test system: HL-60; assay: Antiproliferative activity against FLT3 negative human HL60 cells after 72 hrs by MTS assay; type: functional, cell-based; conditions: HL-60, 72 h
[23] = test system: KG-1; assay: Antiproliferative activity against human KG1 cells harboring wild type FLT3 after 72 hrs by MTS assay; type: functional, cell-based; conditions: KG-1, 72 h
[24] = test system: Kasumi 1; assay: Antiproliferative activity against human Kasumi-1 cells harboring […] after 72 hrs by MTS assay; type: functional, cell-based; conditions: Kasumi 1, 72 h
[25] = test system: COLO 205; assay: Antiproliferative activity against human COLO205 cells harboring B-Raf after 72 hrs by MTS assay; type: functional, cell-based; conditions: COLO 205, 72 h
[26] = Half life in Balb/c nude mouse at 40 mg/kg, po via gavage by LC-MS/MS analysis; type: ADME, organism-based; conditions: in vivo
[27] = Cmax in Balb/c nude mouse at 40 mg/kg, po via gavage by LC-MS/MS analysis; type: ADME, organism-based; set-up: dose 40 mg/kg, route oral; conditions: in vivo
[28] = AUC (0 to infinity) in Balb/c nude mouse at 40 mg/kg, po via gavage by LC-MS/MS analysis; type: ADME, organism-based; set-up: dose 40 mg/kg, time infinity, route oral; conditions: in vivo
[29] = test system: MV4-11; assay: Antitumor activity against human MV4-11 cells xenografted in Harlan nude mouse assessed as tumor growth inhibition at 20 mg/kg, ig bid for 20 days relative to control; type: functional; conditions: MV4-11, po, 480 h, read-out: TGI
[30] = test system: MV4-11; assay: Antitumor activity against human MV4-11 cells xenografted in Harlan nude mouse assessed as tumor growth inhibition at 80 mg/kg, ig bid for 20 days relative to control; type: functional; conditions: MV4-11, po, 480 h, read-out: TGI
[31] = molecular target: T1, Cytochrome P450 3A4 (Homo sapiens, UniProt P08684); assay: Inhibition of microsomal CYP3A4 (unknown origin) using midazolam as substrate preincubated for 5 mins followed by NADPH addition by LC-MS/MS analysis; type: ADME
T1 sequence (P08684 whole entry): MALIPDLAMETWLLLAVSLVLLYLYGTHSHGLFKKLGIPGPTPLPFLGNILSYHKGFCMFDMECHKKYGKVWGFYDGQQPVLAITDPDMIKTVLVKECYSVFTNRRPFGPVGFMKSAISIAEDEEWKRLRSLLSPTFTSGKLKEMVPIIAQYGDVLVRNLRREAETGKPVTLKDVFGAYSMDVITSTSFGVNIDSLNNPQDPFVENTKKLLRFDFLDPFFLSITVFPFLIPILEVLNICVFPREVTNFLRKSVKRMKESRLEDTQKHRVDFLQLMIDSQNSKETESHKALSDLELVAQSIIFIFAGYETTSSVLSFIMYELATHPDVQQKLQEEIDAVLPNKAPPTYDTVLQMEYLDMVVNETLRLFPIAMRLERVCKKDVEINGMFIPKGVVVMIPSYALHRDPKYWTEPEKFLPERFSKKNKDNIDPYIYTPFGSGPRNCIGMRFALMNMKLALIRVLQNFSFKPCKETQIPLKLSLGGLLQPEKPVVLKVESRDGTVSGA

[32] = molecular target: T1, Cytochrome P450 3A4; assay: Inhibition of microsomal CYP3A4 (unknown origin) using testosterone as substrate preincubated for 5 mins followed by NADPH addition by LC-MS/MS analysis; type: ADME
[33] = molecular target: Cytochrome P450 2C19 (Homo sapiens, UniProt P33261); assay: Inhibition of microsomal CYP2C19 (unknown origin) using S-mephenytoin as substrate preincubated for 5 mins followed by NADPH addition by LC-MS/MS analysis; type: ADME
[34] = molecular target: Cytochrome P450 2D6 (Homo sapiens, UniProt P10635); assay: Inhibition of microsomal CYP2D6 (unknown origin) using dextromethorphan as substrate preincubated for 5 mins followed by NADPH addition by LC-MS/MS analysis; type: ADME
Cytochrome P450 2D6, sequence (P10635 whole entry): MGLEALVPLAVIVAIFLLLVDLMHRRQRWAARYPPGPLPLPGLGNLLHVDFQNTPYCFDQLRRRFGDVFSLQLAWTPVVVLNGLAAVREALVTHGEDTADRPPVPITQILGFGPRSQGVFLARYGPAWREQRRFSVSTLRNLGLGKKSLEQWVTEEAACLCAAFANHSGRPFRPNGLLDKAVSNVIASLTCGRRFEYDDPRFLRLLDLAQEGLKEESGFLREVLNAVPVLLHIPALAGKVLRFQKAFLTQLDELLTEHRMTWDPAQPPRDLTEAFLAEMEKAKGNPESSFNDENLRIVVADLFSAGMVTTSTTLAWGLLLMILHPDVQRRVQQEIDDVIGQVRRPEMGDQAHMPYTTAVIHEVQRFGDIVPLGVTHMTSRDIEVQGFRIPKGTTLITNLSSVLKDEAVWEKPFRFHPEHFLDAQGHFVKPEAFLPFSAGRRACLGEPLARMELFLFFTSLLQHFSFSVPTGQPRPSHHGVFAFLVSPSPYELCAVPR

[35] = molecular target: Receptor-type tyrosine-protein kinase FLT3 (Homo sapiens) (UniProt P36888); conditions: 0.1 uM
Description: Inhibition of human FLT3 at 0.1 uM relative to control

[36] = test system: Receptor-type tyrosine-protein kinase FLT3 (Homo sapiens), P36888 [D835Y]; conditions: 0.1 uM

## Cc1[nH]c(/C=C2\C(=O)Nc3ccc(F)cc32)c(C)c1NC(=O)[C@H]1CCCN1.Cl
[1]
  inhibition: 105%
[2]
  inhibition: 30%
[3]
  inhibition: 38%
[4]
  inhibition: 21%
[5]
  inhibition: 98%
[6]
  inhibition: -1%
[7]
  inhibition: 27%
[8]
  inhibition: 77%
[9]
  inhibition: 88%
[10]
  inhibition: 0%
[11]
  inhibition: 2%
[12]
  inhibition: -4%
[13]
  inhibition: 8%
[14]
  inhibition: 7%
[15]
  inhibition: 0%
[16]
  inhibition: 8%
[17]
  IC50: 0.0007 µM
[18]
  IC50: 0.175 µM
[19]
  IC50: 0.227 µM
[20]
  IC50: 0.0236 µM
[21]
  IC50: 4.18 µM
[22]
  IC50: 6.47 µM
[23]
  IC50: 24.5 µM
[24]
  IC50: 0.251 µM
[25]
  IC50: 6.6 µM
[26]
  half-life: 1.6 h
[27]
  Cmax: 709 ng/mL
[28]
  AUC(0-inf): 3070 ng·h/mL
[29]
  inhibition in vivo at 20 mg/kg: 99.8%
[30]
  inhibition in vivo at 80 mg/kg: 98.9%
[31]
  IC50: > 33 µM
[32]
  IC50: > 33 µM
[33]
  IC50: > 33 µM
[34]
  IC50: > 33 µM
[35]
  inhibition: 95%
[36]
  inhibition: 93%
